Patent EP0567613B1, “COMPOSITIONS FOR THERAPY AND PREVENTION OF CANCER” (The Government of the United States of America, as …, priority 1991, dated 1993)

Legend:
10T1/2 = test: Cell proliferation (cell number); type: cell-based, mouse; details: treated for four days
Experimental: The adherent cells were detached with trypsin/EDTA and the cell number determined using a hemocytometer. Data points indicate the mean ± S.D. of duplicates from two independent experiments. The cell lines were obtained from the American Type Culture Collection and maintained in RPMI 1640 (HL-60) or Dulbecco's Modified Eagle's Medium (10T1/2) supplemented with 10% heat inactivated fetal calf serum (Gibco Laboratories), 2 mM L-Glutamine, and antibiotics.

Malignant Melanoma A375 = test: Tumor cell growth / proliferation
[1] = tested on: premalignant 4C8 and 10T1/2 cells; test: Prevention of 5-AzadC-induced malignant conversion in culture; type: cell-based; details: NaPA 0.8-1.6 mg/ml, cells exposed to 5-AzadC
From the text: It is known that the treatment of premalignant 4C8 and 10T1/2 cells with carcinogens such as 5-AzadC produces malignant conversion of the respective cells. When 4C8 [Remold: et al., Cancer Research, 51:1-7 (1990)] and 10T1/2 cells were exposed to 5-AzadC, malignant conversion was evident in two days and two weeks, respectively.

[2] = tested on: NIH 3T3 cells carrying activated EJras oncogene; test: Prevention of neoplastic transformation, oncogene transfer (ras-transformed foci); type: cell-based; details: treatment initiated 24-48 hr after oncogene transfer, scored 14-21 days later
From the text: Left: Untreated control cells at about 3 weeks after DNA transfer. Middle: control of cells with as oncogenes, showing the rate of spontaneous transformation. Right: Oncogene-transfected cells, […] with NaPA.
The effect was reversible upon cessation of treatment. In treated humans, however, the fate of the premalignant cells may be substantially different due to involvement of humoral and cellular immunity (see below).

[3] = tested on: premalignant 10T1/2 cells; test: cells
Experimental: C. Quantitation of adipocytosis. Lipids stained with Oil-Red O were extracted with butanol, and the optical density at 510 nm determined.
Lower: Quantitation of adipocytosis. Cells were fixed with 37% formaldehyde and stained with Oil-Red O. The stained intracellular lipid was extracted with butanol, and the optical density was determined using a Titertek Multiskan MC, manufactured by Flow Laboratories, at a wavelength 510 nm.

C3H 10T1/2 Cells = test: Tumorigenicity of treated cells in athymic mice; details: NaPA 1.6 mg/ml continuous, time 13 weeks
Experimental: Premalignant cells (3-4 x 10^5) were plated in 75 cm^2 dishes and 5-AzadC 0.1 µM was added to the growth medium at 20 and 48 hrs after plating. The cells were then subcultured in the absence of the nucleoside analog for an additional seven weeks. […] For the tumorigenicity assay, 4-5 week-old female athymic nude mice were inoculated s.c. with 1 x 10^6 cells and observed for tumor growth at the site of injection.

4C8a10 cells = test: Malignant phenotype in culture / growth on matrigel; type: cell-based
Experimental: (§1) The experimental model involved nonmalignant 4C8a10 cells (revertants of Haras-transformed NIH3T3 fibroblasts). […]
^b Cells were plated on top of matrigel (reconstituted basement membrane) and observed for malignant growth pattern, i.e., active replication, development of characteristic processes, and invasion.

[4] = tested on: 4C8a10 cells (revertants of Haras-transformed NIH3T3 fibroblasts); test: Tumor formation of cells pretreated in culture and injected s.c. into athymic nude mice; type: in vivo; details: cells pretreated with NaPA 1.5 mg/ml; after 3 weeks
From the text: One-two weeks later the cells were transplanted subcutaneously into athymic mice.
as §1
Frederick Cancer Research Facility).

PC3 cells = test: Growth on matrigel / in vitro invasion; type: cell-based, human; details: 800 µg/ml for 4 days, replated on matrigel, 8 days after plating
Experimental: Pictures of controls, taken after 1 and 8 days (A and B, respectively), show the characteristic growth pattern of untreated cells, i.e., formation of net-like structures composed of actively replicating cells, which eventually degraded the matrigel and formed monolayers on the plastic surface beneath.
Results scored 6-24 hours later.
It is known that PC3 cells are invasive in vitro and metastatic in recipient athymic mice. [Albini, A. et al. A rapid in vitro assay for quantitating the invasive potential of tumor cells. Cancer Res. 47:3239-3245 (1987)]. The invasiveness of PC3 cells which is indicative of their malignant phenotype can be assessed by their ability to degrade and cross tissue barriers such as matrigel, a reconstituted basement membrane. […] In Fig. 7, pictures of controls taken after 1 and 8 days, A and B, respectively, shown the characteristic growth pattern of untreated cells, i.e., formation of net-like structures composed of actively replicating cells which eventually degraded the matrigel and formed monolayers on the plastic surface beneath. […] The formation of small noninvasive colonies on top of the matrigel is indicative of loss of malignant properties following treatment. Results of the in vitro invasion assays correlate highly with the biological behavior of cells in vivo.

[5] = tested on: intracellular glutathione; test: Induction of intracellular glutathione; type: cell-based; details: normal or tumor cells, depending on growth conditions
From the text: It is known that intracellular glutathione plays a major role in detoxification and repair of cellular injury by chemical and physical carcinogens. […] Nontoxic agents that can induce glutathione are highly desirable since these are likely to protect cells from damage by a variety of chemical carcinogens and ionizing radiation.

collagenase type IV = test: Northern blot analysis in PC3 cells; type: cell-based, human; details: NaPA treated PC3 cells
HL-60 = test: Granulocyte differentiation (NBT reduction, morphology) and viability by trypan blue exclusion
Experimental: The number of NBT positive cells was determined after 4 [solid bars] or 7 days [hatched bar] of treatment. […] Glutamine Starvation (Gln, < 0.06 mM) was as described (18).
The ability of cells to reduce nitroblue tetrazolium (NBT) is indicative of oxidase activity which is characteristic of the more mature forms of human bone marrow granulocytes. NBT reduction thus serves as an indicator of granulocyte differentiation. […] Glutamine starvation (Gln, < 0.06 mM) was as described. […] DON, ACV and HPA are glutamine antagonists.

[6] = tested on: primary human skin FS4 fibroblasts; test: Growth of normal cells; type: cell-based; details: Fibroblast, read-out: concentration needed to cause a significant inhibition of growth
Prostatic PC3 Cells = test: Tumorigenicity of pretreated cells in nude mice; type: in vivo, athymic nude mice; details: cells pretreated 1 week at 0.8 mg/ml, 8 weeks later
From the text: PC3 cells were pretreated for 1 week in culture and then injected (2 x 10^5 cells/animal) s.c. into 4-5 week-old female athymic nude mice. […] The data in Table 4 are a summary of two independent experiments.

[7] = after seven days of NaPA treatment, or four days when combined with RA

Question: What does the source list for O=C([O-])Cc1ccccc1.[Na+] [NaPA, sodium phenylacetate]?
Answer: cell proliferation (10T1/2): dose dependent inhibition of cell proliferation; concentration causing about 50% inhibition of growth (Malignant Melanoma A375; A375): 0.4 to 0.8 mg/mL; % Inhibition by NaPA 0.8 mg/ml (Malignant Melanoma A375; A375, 0.8 mg/ml, within one week of treatment): ≥ 70%; Growth (Malignant Melanoma A375; NaPA 400 µg/ml): 63.3 % of control; Viability (Malignant Melanoma A375; NaPA 400 µg/ml): > 95%; appearance of the malignant phenotype (cell morphology, contact inhibition, anchorage dependent growth) [1]: prevented the appearance of the malignant phenotype; formation of ras-transformed foci [2]: dose-dependent reduction in the formation of ras-transformed foci; cytotoxic effect ([3]; 800 µg/ml): totally free of cytotoxic effect; Differentiation at 1 mM ([3]; 1 mM, sodium salts): 65%; adipocyte conversion, share of the cell population ([3]; 10T1/2 model): over 80%; DC50 ([3]; Mus musculus, Adipocyte, read-out: DC50, concentration of compound causing 50% differentiation): 700 µM; Tumors Diameter (C3H 10T1/2 Cells): 0 mm ± S.D.; Tumors Incidence (C3H 10T1/2 Cells; 1 x 10^6 cells s.c.): 0/8; Growth on matrigel (4C8a10 cells; NaPA 1.5 mg/ml): -; development of the malignant phenotype (4C8a10 cells; in 5-AzadC treated cultures): prevented the development of the malignant phenotype; Tumor Formation Incidence [4]: 0/8; degradation of the matrigel barrier (PC3 cells): failed to degrade the matrigel barrier; induction of the activity of intracellular glutathione [5]: 2-10 fold; expression of collagenase type IV (collagenase type IV): inhibited the expression of collagenase type IV; granulocyte differentiation (NBT positive cells) (HL-60; NaPA 0.8 and 1.6 mg/ml, 4 or 7 days): capable of inducing granulocyte differentiation in HL-60; banded and segmented neutrophils capable of NBT (HL-60; [7]): 30-40%; early stage myelocytes and metamyelocytes (HL-60; [7]): 30-50%; minimal effective concentration [6]: 2000 to 4000 µg/mL; Incidence (Prostatic PC3 Cells; 2 x 10^5 cells/animal s.c.): 1/7; Diameter (Prostatic PC3 Cells): 2 mm ± S.D.; Weight (Prostatic PC3 Cells): 50 mg
